{"source": "patent US10294202B2", "about": "“Pyrrolidinones as herbicides” (FMC Corporation, priority 2013, dated 2019)", "key": {"sedge, umbrella": {"system": "sedge, umbrella", "assay": "Test B flooded paddy test", "assay_type": "in vivo, Cyperus difformis", "settings": "250 g ai/ha, Flood; scale of 0 to 100 where 0 is no effect and 100 is complete control", "procedure,_shortened": "(§1)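 Plants grown to 2-leaf stage; pots flooded 3 cm above soil and compound applied directly into paddy water, depth held throughout. Visual rating against untreated controls after 13 to 15 days in greenhouse, 0 (no effect) to 100 (complete control).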"}, "ducksalad": {"system": "ducksalad", "assay": "Test B flooded paddy test", "assay_type": "in vivo, Heteranthera limosa", "settings": "250 g ai/ha, Flood; scale of 0 to 100 where 0 is no effect and 100 is complete control", "procedure,_shortened": "as §1"}, "barnyardgrass": {"system": "barnyardgrass", "assay": "Test B flooded paddy test", "assay_type": "in vivo, Echinochloa crus-galli", "settings": "250 g ai/ha, Flood; scale of 0 to 100 where 0 is no effect and 100 is complete control", "procedure,_shortened": "as §1"}, "ryegrass, Italian": {"system": "ryegrass, Italian", "assay": "Test C pre-/postemergence herbicide test", "assay_type": "in vivo, Lolium multiflorum", "procedure,_shortened": "(§2)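 Two application timings ran in parallel with identically formulated test chemicals (non-phytotoxic solvent, surfactant included): spray on seeded loam–sand soil, and spray on emerged plants 2 to 18 cm high. Evaluation at 13 to 15 days compared each species with controls, rated from 0 up to 100.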"}, "wheat (winter wheat)": {"system": "wheat (winter wheat)", "assay": "Test C pre-/postemergence herbicide test", "assay_type": "in vivo, Triticum aestivum", "procedure,_shortened": "as §2"}, "galium": {"system": "galium", "assay": "Test C pre-/postemergence herbicide test", "assay_type": "in vivo, Galium aparine", "procedure,_shortened": "as §2"}, "corn": {"system": "corn", "assay": "Test C pre-/postemergence herbicide test", "assay_type": "in vivo, Zea mays", "procedure,_shortened": "as §2"}, "lambsquarters": {"system": "lambsquarters", "assay": "Test C pre-/postemergence herbicide test", "assay_type": "in vivo, Chenopodium album", "procedure,_shortened": "as §2"}, "morningglory": {"system": "morningglory", "assay": "Test C pre-/postemergence herbicide test", "assay_type": "in vivo, Ipomoea coccinea", "procedure,_shortened": "as §2"}, "pigweed": {"system": "pigweed", "assay": "Test C pre-/postemergence herbicide test", "assay_type": "in vivo, Amaranthus retroflexus", "procedure,_shortened": "as §2"}, "ragweed": {"system": "ragweed", "assay": "Test C pre-/postemergence herbicide test", "assay_type": "in vivo, Ambrosia elatior", "procedure,_shortened": "as §2"}, "soybean": {"system": "soybean", "assay": "Test C pre-/postemergence herbicide test", "assay_type": "in vivo, Glycine max", "procedure,_shortened": "as §2"}, "oat, wild": {"system": "oat, wild", "assay": "Test C pre-/postemergence herbicide test", "assay_type": "in vivo, Avena fatua", "procedure,_shortened": "as §2"}, "[1]": {"settings": "Postemergence, 31 g ai/ha, scale 0 (no effect) to 100 (complete control)"}, "[2]": {"settings": "Postemergence, 62 g ai/ha, scale 0 to 100 (0 no effect, 100 complete control)"}, "[3]": {"settings": "Postemergence, 125 g ai/ha, scale 0 to 100 (0 no effect, 100 complete control)"}, "[4]": {"settings": "Postemergence, 250 g ai/ha, scale 0 to 100 (0 no effect, 100 complete control)"}, "[5]": {"settings": "Preemergence, 62 g ai/ha, scale 0 to 100"}, "[6]": {"settings": "Preemergence, 125 g ai/ha, scale 0 to 100 (0 no effect, 100 complete control)"}, "[7]": {"settings": "Preemergence, 31 g ai/ha, scale 0 to 100 (0 no effect, 100 complete control)"}, "[8]": {"settings": "Preemergence, 250 g ai/ha, scale 0 to 100 (0 no effect, 100 complete control)"}}}
{"smiles": "O=C1NCC(c2cc(F)c(F)c(F)c2)C1C(=O)Nc1ccccc1F", "note": "(racemic) [Compound 34]", "values": [{"measurement": "Plant response rating, Sedge, Umbrella", "setting": "sedge, umbrella", "value": 0}, {"measurement": "Plant response rating, Ducksalad", "setting": "ducksalad", "value": 95}, {"measurement": "Plant response rating, Barnyardgrass", "setting": "barnyardgrass", "value": 0}, {"measurement": "Plant response rating, Ryegrass, Italian", "setting": "ryegrass, Italian; [1]", "value": 0}, {"measurement": "Plant response rating, Ryegrass, Italian", "setting": "ryegrass, Italian; [2]", "value": 0}, {"measurement": "Plant response rating, Ryegrass, Italian", "setting": "ryegrass, Italian; [3]", "value": 0}, {"measurement": "Plant response rating, Ryegrass, Italian", "setting": "ryegrass, Italian; [4]", "value": 0}, {"measurement": "Plant response rating, Ryegrass, Italian", "setting": "ryegrass, Italian; [5]", "value": 0}, {"measurement": "Plant response rating, Ryegrass, Italian", "setting": "ryegrass, Italian; [6]", "value": 20}, {"measurement": "Plant response rating, Wheat", "setting": "wheat (winter wheat); [1]", "value": 0}, {"measurement": "Plant response rating, Wheat", "setting": "wheat (winter wheat); [2]", "value": 0}, {"measurement": "Plant response rating, Wheat", "setting": "wheat (winter wheat); [3]", "value": 0}, {"measurement": "Plant response rating, Wheat", "setting": "wheat (winter wheat); [4]", "value": 0}, {"measurement": "Plant response rating, Wheat", "setting": "wheat (winter wheat); [5]", "value": 0}, {"measurement": "Plant response rating, Wheat", "setting": "wheat (winter wheat); [6]", "value": 35}, {"measurement": "Plant response rating, Galium", "setting": "galium; [1]", "value": 0}, {"measurement": "Plant response rating, Galium", "setting": "galium; [2]", "value": 0}, {"measurement": "Plant response rating, Galium", "setting": "galium; [3]", "value": 0}, {"measurement": "Plant response rating, Galium", "setting": "galium; [4]", "value": 10}, {"measurement": "Galium plant response rating", "setting": "galium; [7]", "value": 0}, {"measurement": "Plant response rating, Galium", "setting": "galium; [5]", "value": 0}, {"measurement": "Plant response rating, Galium", "setting": "galium; [6]", "value": 5}, {"measurement": "Plant response rating, Galium", "setting": "galium; [8]", "value": 60}, {"measurement": "Plant response rating, Corn", "setting": "corn; [1]", "value": 0}, {"measurement": "Plant response rating, Corn", "setting": "corn; [2]", "value": 0}, {"measurement": "Plant response rating, Corn", "setting": "corn; [3]", "value": 0}, {"measurement": "Plant response rating, Corn", "setting": "corn; [4]", "value": 0}, {"measurement": "Corn plant response rating", "setting": "corn; [7]", "value": 0}, {"measurement": "Plant response rating, Corn", "setting": "corn; [5]", "value": 0}, {"measurement": "Plant response rating, Corn", "setting": "corn; [6]", "value": 0}, {"measurement": "Plant response rating, Corn", "setting": "corn; [8]", "value": 10}, {"measurement": "Plant response rating, Lambsquarters", "setting": "lambsquarters; [1]", "value": 0}, {"measurement": "Plant response rating, Lambsquarters", "setting": "lambsquarters; [2]", "value": 0}, {"measurement": "Plant response rating, Lambsquarters", "setting": "lambsquarters; [3]", "value": 10}, {"measurement": "Plant response rating, Lambsquarters", "setting": "lambsquarters; [4]", "value": 55}, {"measurement": "Plant response rating, Lambsquarters", "setting": "lambsquarters; [5]", "value": 40}, {"measurement": "Plant response rating, Lambsquarters", "setting": "lambsquarters; [6]", "value": 80}, {"measurement": "Plant response rating, Morningglory", "setting": "morningglory; [1]", "value": 0}, {"measurement": "Plant response rating, Morningglory", "setting": "morningglory; [2]", "value": 5}, {"measurement": "Plant response rating, Morningglory", "setting": "morningglory; [3]", "value": 5}, {"measurement": "Plant response rating, Morningglory", "setting": "morningglory; [4]", "value": 10}, {"measurement": "Plant response rating, Morningglory", "setting": "morningglory; [5]", "value": 0}, {"measurement": "Plant response rating, Morningglory", "setting": "morningglory; [6]", "value": 5}, {"measurement": "Plant response rating, Pigweed", "setting": "pigweed; [1]", "value": 0}, {"measurement": "Plant response rating, Pigweed", "setting": "pigweed; [2]", "value": 0}, {"measurement": "Plant response rating, Pigweed", "setting": "pigweed; [3]", "value": 0}, {"measurement": "Plant response rating, Pigweed", "setting": "pigweed; [4]", "value": 10}, {"measurement": "Plant response rating, Pigweed", "setting": "pigweed; [5]", "value": 0}, {"measurement": "Plant response rating, Pigweed", "setting": "pigweed; [6]", "value": 0}, {"measurement": "Plant response rating, Ragweed", "setting": "ragweed; [1]", "value": 5}, {"measurement": "Plant response rating, Ragweed", "setting": "ragweed; [2]", "value": 5}, {"measurement": "Plant response rating, Ragweed", "setting": "ragweed; [3]", "value": 5}, {"measurement": "Plant response rating, Ragweed", "setting": "ragweed; [4]", "value": 5}, {"measurement": "Plant response rating, Ragweed", "setting": "ragweed; [5]", "value": 0}, {"measurement": "Plant response rating, Ragweed", "setting": "ragweed; [6]", "value": 0}, {"measurement": "Plant response rating, Soybean", "setting": "soybean; [1]", "value": 0}, {"measurement": "Plant response rating, Soybean", "setting": "soybean; [2]", "value": 0}, {"measurement": "Plant response rating, Soybean", "setting": "soybean; [3]", "value": 5}, {"measurement": "Plant response rating, Soybean", "setting": "soybean; [4]", "value": 10}, {"measurement": "Plant response rating, Soybean", "setting": "soybean; [5]", "value": 0}, {"measurement": "Plant response rating, Soybean", "setting": "soybean; [6]", "value": 5}, {"measurement": "Plant response rating, Oat, Wild", "setting": "oat, wild; [1]", "value": 0}, {"measurement": "Plant response rating, Oat, Wild", "setting": "oat, wild; [2]", "value": 0}, {"measurement": "Plant response rating, Oat, Wild", "setting": "oat, wild; [3]", "value": 0}, {"measurement": "Plant response rating, Oat, Wild", "setting": "oat, wild; [4]", "value": 0}, {"measurement": "Plant response rating, Oat, Wild", "setting": "oat, wild; [5]", "value": 0}, {"measurement": "Plant response rating, Oat, Wild", "setting": "oat, wild; [6]", "value": 60}]}
{"smiles": "Cc1ccccc1NC(=O)C1C(=O)NCC1c1cc(F)c(F)c(F)c1", "note": "(racemic) [Compound 35]", "values": [{"measurement": "Plant response rating, Sedge, Umbrella", "setting": "sedge, umbrella", "value": 0}, {"measurement": "Plant response rating, Ducksalad", "setting": "ducksalad", "value": 80}, {"measurement": "Plant response rating, Barnyardgrass", "setting": "barnyardgrass", "value": 0}, {"measurement": "Plant response rating, Ryegrass, Italian", "setting": "ryegrass, Italian; [5]", "value": 5}, {"measurement": "Plant response rating, Ryegrass, Italian", "setting": "ryegrass, Italian; [6]", "value": 5}, {"measurement": "Plant response rating, Wheat", "setting": "wheat (winter wheat); [5]", "value": 0}, {"measurement": "Plant response rating, Wheat", "setting": "wheat (winter wheat); [6]", "value": 10}, {"measurement": "Galium plant response rating", "setting": "galium; [7]", "value": 0}, {"measurement": "Plant response rating, Galium", "setting": "galium; [5]", "value": 0}, {"measurement": "Plant response rating, Galium", "setting": "galium; [6]", "value": 5}, {"measurement": "Plant response rating, Galium", "setting": "galium; [8]", "value": 30}, {"measurement": "Corn plant response rating", "setting": "corn; [7]", "value": 0}, {"measurement": "Plant response rating, Corn", "setting": "corn; [5]", "value": 0}, {"measurement": "Plant response rating, Corn", "setting": "corn; [6]", "value": 5}, {"measurement": "Plant response rating, Corn", "setting": "corn; [8]", "value": 5}, {"measurement": "Plant response rating, Lambsquarters", "setting": "lambsquarters; [5]", "value": 0}, {"measurement": "Plant response rating, Lambsquarters", "setting": "lambsquarters; [6]", "value": 0}, {"measurement": "Plant response rating, Morningglory", "setting": "morningglory; [5]", "value": 10}, {"measurement": "Plant response rating, Morningglory", "setting": "morningglory; [6]", "value": 10}, {"measurement": "Plant response rating, Pigweed", "setting": "pigweed; [5]", "value": 0}, {"measurement": "Plant response rating, Pigweed", "setting": "pigweed; [6]", "value": 0}, {"measurement": "Plant response rating, Ragweed", "setting": "ragweed; [5]", "value": 0}, {"measurement": "Plant response rating, Ragweed", "setting": "ragweed; [6]", "value": 0}, {"measurement": "Plant response rating, Soybean", "setting": "soybean; [5]", "value": 0}, {"measurement": "Plant response rating, Soybean", "setting": "soybean; [6]", "value": 0}, {"measurement": "Plant response rating, Oat, Wild", "setting": "oat, wild; [5]", "value": 0}, {"measurement": "Plant response rating, Oat, Wild", "setting": "oat, wild; [6]", "value": 0}]}
